Molecules are shown by their SMILES. Some results are limits rather than exact numbers.

The IC50 is the midpoint of a concentration-inhibition curve. A high value points to lower potency.

A short description of data set [1]: Drug metabolism in heparinized pooled human plasma at pH 7.5 assessed as formation of (S)-2-(2-ethoxy-4-(5-((((R)-2-((R)-1-(N-hydroxyformamido)propyl)heptanamido)methyl) carbamoyl)furan-2-yl)benzamido)succinic acid at 100 to 2000 ng/ml incubated up to 4 or 24 hrs by LC-MS/MS analysis. The format is ADME, cell-free. To be noted: pH 7.5, 24 h.
Data set [2] can be described thus: Reduction in PICP levels in human cardiac fibroblasts incubated for 24 to 48 hrs by ELISA. The format is functional.
Data set [3] is described as follows: Drug metabolism in heparinized pooled human plasma at pH 7.5 assessed as formation of (S)-2-(2-(carboxymethoxy)-4-(5-((((R)-2-((R)-1-(N-hydroxyformamido)propyl)heptanamido)methyl)carbamoyl)furan-2-yl)benzamido)succinic acid at 100 to 2000 ng/ml incubated up to 4 or 24 hrs by LC-MS/MS analysis. The format is ADME, cell-free. To be noted: pH 7.5, 24 h.

On to `CCCCC[C@@H](C(=O)NCNC(=O)c1ccc(-c2ccc(C(=O)N[C@@H](CC(=O)O)C(=O)O)c(OCC)c2)o1)[C@@H](CC)N(C=O)OC(=O)c1ccc2c(c1)OCCO2.N.N`, for which the Drug metabolism result in data set [1] was “Metabolite_Detected”. This molecule gave an IC50 in data set [2] of less than 3.98 µM.
Take `CCCCC[C@@H](C(=O)NCNC(=O)c1ccc(-c2ccc(C(=O)N[C@@H](CC(=O)O)C(=O)O)c(OCC)c2)o1)[C@@H](CC)N(C=O)OC(=O)c1ccc(OC)cc1`: the Drug metabolism entry in data set [1] is on record as “Metabolite_Detected”. In data set [2], this molecule gave an IC50 of less than 3.98 µM.
Regarding `CCCCC[C@@H](C(=O)NCNC(=O)c1ccc(-c2ccc(C(=O)N[C@@H](CC(=O)O)C(=O)O)c(OCC)c2)o1)[C@@H](CC)N(C=O)OC(=O)c1c(C)cccc1F`, the Drug metabolism result in data set [1] was “Metabolite_Detected”. For the same molecule, the half-inhibitory concentration (IC50) in data set [2] is less than 3.98 µM.
Consider `CCCCC[C@@H](C(=O)NCNC(=O)c1ccc(-c2ccc(C(=O)N[C@@H](CC(=O)O)C(=O)O)c(OCC)c2)o1)[C@@H](CC)N(C=O)OC(=O)c1ccc(CN2CCOCC2)cc1C`, for which the Drug metabolism result in data set [1] is listed as “Metabolite_Detected”. The molecule also showed an IC50 in data set [2] of less than 3.98 µM.
`CCCCC[C@@H](C(=O)NCNC(=O)c1ccc(-c2ccc(C(=O)N[C@@H](CC(=O)O)C(=O)OCOC(=O)C(C)C)c(OCC)c2)o1)[C@@H](CC)N(O)C=O`: the Drug metabolism result in data set [1] is “Metabolite_Detected”. For the same molecule, the IC50 in data set [2] was less than 3.98 µM.
The like results for `CCCCC[C@@H](C(=O)NCNC(=O)c1ccc(-c2ccc(C(=O)N[C@@H](CC(=O)O)C(=O)O)c(OCC)c2)o1)[C@@H](CC)N(C=O)OC(=O)c1ccc([N+](=O)[O-])cc1` were, in that order, “Metabolite_Detected” and less than 3.98 µM.
For `CCCCC[C@@H](C(=O)NCNC(=O)c1ccc(-c2ccc(C(=O)N[C@@H](CC(=O)O)C(=O)O)c(OCC)c2)o1)[C@@H](CC)N(C=O)OC(=O)c1ccc(C(F)(F)F)cc1`, the Drug metabolism entry in data set [1] is given as “Metabolite_Detected”. The 50% inhibitory concentration (IC50) in data set [2] is less than 3.98 µM.
Regarding `CCCCC[C@@H](C(=O)NCNC(=O)c1ccc(-c2ccc(C(=O)N[C@@H](CC(=O)O)C(=O)O)c(OCC(=O)O)c2)o1)[C@@H](CC)N(C=O)OC(=O)NC`, the Drug metabolism entry in data set [3] was “Metabolite_Detected”.
As to `CCCCC[C@@H](C(=O)NCNC(=O)c1ccc(-c2ccc(C(=O)N[C@@H](CC(=O)O)C(=O)O)c(OCC)c2)o1)[C@@H](CC)N(C=O)OC(=O)c1ccc(N2CCCC2=O)cc1.N.N`, the Drug metabolism result in data set [1] is “Metabolite_Detected”. For the same molecule, in data set [2], the IC50 is less than 3.98 µM.
As for `CCCCC[C@@H](C(=O)NCNC(=O)c1ccc(-c2ccc(C(=O)N[C@@H](CC(=O)O)C(=O)O)c(OCC)c2)o1)[C@@H](CC)N(C=O)OC(=O)c1ccc(-n2cccn2)cc1`, the Drug metabolism entry in data set [1] is given as “Metabolite_Detected”. This molecule gave a 50% inhibitory concentration (IC50) in data set [2] of less than 3.98 µM.
Take `CCCCC[C@@H](C(=O)NCNC(=O)c1ccc(-c2ccc(C(=O)N[C@@H](CC(=O)O)C(=O)O)c(OCC(=O)O)c2)o1)[C@@H](CC)N(C=O)OC(=O)NC(C)(C)c1ccccc1`: the Drug metabolism result in data set [3] is listed as “Metabolite_Detected”.
As to `CCCCC[C@@H](C(=O)NCNC(=O)c1ccc(-c2ccc(C(=O)N[C@@H](CC(=O)O)C(=O)O)c(OCC)c2)o1)[C@@H](CC)N(C=O)OC(=O)c1ccc(OCCOCCO)cc1`, the Drug metabolism entry in data set [1] is recorded as “Metabolite_Detected”. The molecule also showed an IC50 in data set [2] of less than 3.98 µM.
With `CCCCC[C@@H](C(=O)NCNC(=O)c1ccc(-c2ccc(C(=O)N[C@@H](CC(=O)O)C(=O)O)c(OCC)c2)o1)[C@@H](CC)N(C=O)OC(=O)NC(C)C`, the Drug metabolism result in data set [1] is listed as “Metabolite_Detected”. The IC50 in data set [2] was less than 3.98 µM.
For `CCCCC[C@@H](C(=O)NCNC(=O)c1ccc(-c2ccc(C(=O)N[C@@H](CC(=O)O)C(=O)O)c(OCC)c2)o1)[C@@H](CC)N(C=O)OC(=O)c1ccc(OC)c(OC)c1`, the Drug metabolism entry in data set [1] is reported as “Metabolite_Detected”. The molecule further had a 50% inhibitory concentration (IC50) in data set [2] of less than 3.98 µM.
The like results for `CCCCC[C@@H](C(=O)NCNC(=O)c1ccc(-c2ccc(C(=O)N[C@@H](CC(=O)O)C(=O)O)c(OCC)c2)o1)[C@@H](CC)N(C=O)OC(=O)C1CCNCC1.O=C(O)C(F)(F)F` were, in that order, “Metabolite_Detected” and less than 3.98 µM.
Turning to `CCCCC[C@@H](C(=O)NCNC(=O)c1ccc(-c2ccc(C(=O)N[C@@H](CC(=O)O)C(=O)O)c(OCC)c2)o1)[C@@H](CC)N(C=O)OC(=O)c1ccc2c(c1)N(C)CCO2.N.N`, the Drug metabolism entry in data set [1] is recorded as “Metabolite_Detected”. The IC50 in data set [2] is less than 3.98 µM.
In the case of `CCCCC[C@@H](C(=O)NCNC(=O)c1ccc(-c2ccc(C(=O)N[C@@H](CC(=O)O)C(=O)O)c(OCC)c2)o1)[C@@H](CC)N(C=O)OC(=O)c1ccc(F)cc1C(C)C`, the Drug metabolism result in data set [1] is on record as “Metabolite_Detected”. In data set [2], this molecule showed an IC50 of less than 3.98 µM.
For the molecule `CCCCC[C@@H](C(=O)NCNC(=O)c1ccc(-c2ccc(C(=O)N[C@@H](CC(=O)O)C(=O)O)c(OCC)c2)o1)[C@@H](CC)N(C=O)OC(=O)c1ccc(-n2ccnc2)cc1`, in data set [1], the Drug metabolism entry was “Metabolite_Detected”. Moreover, the IC50 in data set [2] is less than 3.98 µM.
Consider `CCCCC[C@@H](C(=O)NCNC(=O)c1ccc(-c2ccc(C(=O)N[C@@H](CC(=O)O)C(=O)O)c(OCC)c2)o1)[C@@H](CC)N(C=O)OCOC(=O)C(C)(C)C`, for which the Drug metabolism result in data set [1] was “Metabolite_Detected”. For the same molecule, in data set [2], the half-maximal inhibitory concentration (IC50) is less than 3.98 µM.
As to `CCCCC[C@@H](C(=O)NCNC(=O)c1ccc(-c2ccc(C(=O)N[C@@H](CC(=O)O)C(=O)O)c(OCC(=O)O)c2)o1)[C@@H](CC)N(C=O)OC(=O)C1CC1C` (some centres undefined), in data set [3], the Drug metabolism result is given as “Metabolite_Detected”.
Regarding `CCCCC[C@@H](C(=O)NCNC(=O)c1ccc(-c2ccc(C(=O)N[C@@H](CC(=O)O)C(=O)O)c(OCC)c2)o1)[C@@H](CC)N(C=O)OC(=O)c1ccc(N(C)S(C)(=O)=O)cc1`, the Drug metabolism entry in data set [1] was “Metabolite_Detected”. In data set [2], this molecule had an IC50 of less than 3.98 µM.
In the case of `CCCCC[C@@H](C(=O)NCNC(=O)c1ccc(-c2ccc(C(=O)N[C@@H](CC(=O)O)C(=O)O)c(OCC(=O)O)c2)o1)[C@@H](CC)N(C=O)OC(=O)c1ccccc1OC(=O)N(C)C`, the Drug metabolism entry in data set [3] is “Metabolite_Detected”.
Regarding `CCCCC[C@@H](C(=O)NCNC(=O)c1ccc(-c2ccc(C(=O)N[C@@H](CC(=O)O)C(=O)O)c(OCC)c2)o1)[C@@H](CC)N(C=O)OC(=O)c1ccc(CN2CCOCC2)cc1`, in data set [1], the Drug metabolism entry is on record as “Metabolite_Detected”. Also, the IC50 in data set [2] is less than 3.98 µM.
With `CCCCC[C@@H](C(=O)NCNC(=O)c1ccc(-c2ccc(C(=O)N[C@@H](CC(=O)O)C(=O)O)c(OCC(=O)O)c2)o1)[C@@H](CC)N(C=O)OP(=O)(N[C@@H](C)C(=O)OC)Oc1ccccc1.N.N.N` (some centres undefined), the Drug metabolism result in data set [3] is given as “Metabolite_Detected”.
The same measure, in the same setting: under `CCCCC[C@@H](C(=O)NCNC(=O)c1ccc(-c2ccc(C(=O)N[C@@H](CC(=O)O)C(=O)O)c(OCC(=O)O)c2)o1)[C@@H](CC)N(C=O)OC(=O)c1ccc(OC)cc1` stands “Metabolite_Detected”.
Regarding `CCCCC[C@@H](C(=O)NCNC(=O)c1ccc(-c2ccc(C(=O)N[C@@H](CC(=O)O)C(=O)O)c(OCC)c2)o1)[C@@H](CC)N(C=O)OC(=O)c1cccc(N2CCCC2)c1.N.N`, the Drug metabolism entry in data set [1] is given as “Metabolite_Detected”. For the same molecule, in data set [2], the IC50 is less than 3.98 µM.
Take `CCCCC[C@@H](C(=O)NCNC(=O)c1ccc(-c2ccc(C(=O)N[C@@H](CC(=O)O)C(=O)O)c(OCC(=O)O)c2)o1)[C@@H](CC)N(C=O)OC(=O)c1cccc(C(=O)O)c1`: the Drug metabolism entry in data set [3] was “Metabolite_Detected”.
Regarding `CCCCC[C@@H](C(=O)NCNC(=O)c1ccc(-c2ccc(C(=O)N[C@@H](CC(=O)O)C(=O)O)c(OCC)c2)o1)[C@@H](CC)N(C=O)OC(=O)c1ccc(F)cc1C`, the Drug metabolism entry in data set [1] was “Metabolite_Detected”. Besides, the concentration for half-maximal inhibition (IC50) in data set [2] is less than 3.98 µM.
